Assay results published in BindingDB's records for doi:10.1111/cbdd.12116 (University of Troms&#163, 2013).

biological target: Sodium-dependent serotonin transporter (Rattus norvegicus, UniProt P31652); assay: In vitro Binding Affinity Assay; conditions: pH 7.7; 25 °C
Description: The assay was performed in accordance with the method described by Owens et al. with slight modifications. Rat cerebral cortex was homogenized in 30 volumes of ice-cold 50mM Tris-HCl containing 150mM NaCl and 5mM KCl, pH 7.7, at 25°C and centrifuged at 20,000 x g for 20 min. Pellet was resuspended in 30 volumes of buffer and centrifuged again for 2 more times. The mixture of 240uL of the tissue suspension, 30uL of 1µM imipramine, 30uL of 1nM [3H]-citalopram and 100µL of the analyzed compound (10^-10 to 10^-4M) were incubated at 22°C for 1 h. Incubations were terminated by vacuum filtration and washed twice with 100µL of ice-cold buffer. The radioactivity was measured using a WALLAC 1409 DSA liquid scintillation counter.

Sequence of Sodium-dependent serotonin transporter (P31652 whole entry): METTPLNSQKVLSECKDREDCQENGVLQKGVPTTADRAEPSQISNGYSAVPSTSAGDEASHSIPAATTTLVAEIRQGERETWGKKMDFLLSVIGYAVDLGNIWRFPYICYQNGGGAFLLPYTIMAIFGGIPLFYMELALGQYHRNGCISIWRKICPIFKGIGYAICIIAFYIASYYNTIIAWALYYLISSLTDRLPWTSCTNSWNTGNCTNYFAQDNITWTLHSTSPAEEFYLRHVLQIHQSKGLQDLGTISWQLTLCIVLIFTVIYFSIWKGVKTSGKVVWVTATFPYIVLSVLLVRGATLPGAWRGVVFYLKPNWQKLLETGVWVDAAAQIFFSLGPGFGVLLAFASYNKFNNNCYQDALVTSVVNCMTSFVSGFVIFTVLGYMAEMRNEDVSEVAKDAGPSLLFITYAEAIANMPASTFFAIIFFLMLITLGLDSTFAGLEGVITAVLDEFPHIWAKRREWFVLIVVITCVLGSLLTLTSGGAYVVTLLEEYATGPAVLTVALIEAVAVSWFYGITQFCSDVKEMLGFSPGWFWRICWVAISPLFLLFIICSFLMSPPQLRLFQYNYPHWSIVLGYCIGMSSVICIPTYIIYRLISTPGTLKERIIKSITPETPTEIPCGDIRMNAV

Going from CCCCN1CCN(c2ccc3cc([N+](=O)[O-])ccc3n2)CC1 [2-(4-Butyl-piperazin-1-yl)-6-nitroquinoline (4)] to CCCCCN1CCN(c2ccc3cc([N+](=O)[O-])ccc3n2)CC1 [2-(4-Pentyl-piperazin-1-yl)-6-nitroquinoline (5)], the Ki rises from 24 nM to 80.5 nM (3.4-fold). The first binds more tightly here.

Going from CCCCCCCCCCN1CCN(c2ccc3cc([N+](=O)[O-])ccc3n2)CC1 [2-(4-Decyl-piperazin-1-yl)-6-nitroquinoline (10)] to CCCCCCCCCCCN1CCN(c2ccc3cc([N+](=O)[O-])ccc3n2)CC1 [2-(4-Undecyl-piperazin-1-yl)-6-nitroquinoline (11)], the Ki rises from 4.5 nM to 12.6 nM (2.8-fold). The first binds more tightly here.

Compared with CCCCCCCCCCCCN1CCN(c2ccc3cc([N+](=O)[O-])ccc3n2)CC1 [2-(4-Dodecyl-piperazin-1-yl)-6-nitroquinoline (12)], CCCCCCCCCN1CCN(c2ccc3cc([N+](=O)[O-])ccc3n2)CC1 [2-(4-Nonyl-piperazin-1-yl)-6-nitroquinoline (9)] is 8.9-fold lower in Ki: 16.1 nM for the first, 1.8 nM for the second.

Going from CCN1CCN(c2ccc3cc([N+](=O)[O-])ccc3n2)CC1 [2-(4-Ethyl-piperazin-1-yl)-6-nitroquinoline (2)] to CCCN1CCN(c2ccc3cc([N+](=O)[O-])ccc3n2)CC1 [2-(4-Propyl-piperazin-1-yl)-6-nitroquinoline (3)], the Ki rises from 86.1 nM to 496 nM (5.8-fold).

Going from CCCCCCCN1CCN(c2ccc3cc([N+](=O)[O-])ccc3n2)CC1 [2-(4-Heptyl-piperazin-1-yl)-6-nitroquinoline (7)] to CCCCCCCCN1CCN(c2ccc3cc([N+](=O)[O-])ccc3n2)CC1 [2-(4-Octyl-piperazin-1-yl)-6-nitroquinoline (8)], the Ki falls from 54.1 nM to 20.8 nM (2.6-fold).

Compared with CCCCCCN1CCN(c2ccc3cc([N+](=O)[O-])ccc3n2)CC1 [2-(4-Hexyl-piperazin-1-yl)-6-nitroquinoline (6)], CN1CCN(c2ccc3cc([N+](=O)[O-])ccc3n2)CC1 [2-(4-Methyl-piperazin-1-yl)-6-nitroquinoline (1)] is 18-fold higher in Ki: 72.9 nM for the first, 1300 nM for the second.
